Measurements as given in patent US4124723A, “Method for suppressing histamine release” (Carter-Wallace, Inc., priority 1977, dated 1978).

Legend:
[1] = test system: sensitized rabbit leukocytes; assay: Inhibition of histamine release from sensitized rabbit leukocytes (in vitro); format: cell-based; conditions: for IC50: Oryctolagus cuniculus, Leukocyte, ragweed-sensitized rabbit leukocytes, ragweed antigen, with S.E.M., read-out: ED50 + S.E.M. (molar concentration required to give 50% inhibition of histamine release); for Relative in vitro Inhibition of Histamine Release: relative to chlorphenesin = 1
Description: The procedure published by L. M. Lichtenstein and A. G. Osler, J. EXPTL. MEDICINE, 120:507-530, 1964, for the determination of histamine from human leukocytes, was used to measure histamine release from sensitized rabbit leukocytes. Forty-five ml of blood, drawn by cardiac puncture from ragweed-sensitized rabbits with a plastic syringe containing 250 units of heparin in 5 ml of physiological saline solution, was used. Measurements were made of the total amount of histamine in the leukocytes, the amount of histamine released with the specific antigen (ragweed), the amount of histamine released spontaneously (cell blanks), and the amount of histamine released in the presence of various concratrations of drugs under test.
Appropriate controls for buffer antigen and drugs were included and an internal histamine standard curve was established with each experiment. Inhibition of histamine release was computed from the amount of histamine released by the ragweed antigen in the presence and absence of the drug, i.e., the difference between the quantity of histamine released spontaneously and the amount released by antigen.

[2] = test system: ragweed-sensitized rabbits; assay: Inhibition of histamine release after oral administration to ragweed-sensitized rabbits (in vivo); conditions: 100 mg/kg oral, rabbit, 50 μg antigen N per ml
Description: Five ml of blood was drawn by cardiac puncture from a ragweed-sensitized rabbit to ascertain the basic histamine content of the blood. The amount of histamine released by the addition of 50 μg of antigen N per ml of the assay system was determined. The rabbit was then treated orally with 100 mg/kg of drug using a catheter. One and 5 hr following administration of drug, 5 ml of blood was withdrawn and assayed for histamine by the spectrofluorometric method described by P. A. Shore, A. Burkhalter and V. H. Cohn, Jr., J. PHARMACOL. and EXPTL. THERAP., 127:182, 1959. The percentage inhibition of histamine release was computed from the amount of histamine released before and at 1 and 5 hr following administration of drug.

human leukocytes = conditions: reported by Lichtenstein and Adkinson, J. Immunology 103:866, 1969; cited from earlier work

Row | SMILES | IC50 [1] [µM] | Relative in vitro Inhibition of Histamine Release [1] | percentage inhibition of histamine release ([2]; 5 hrs after drug) | percentage inhibition of histamine release ([2]; one hour after drug) | inhibition of histamine release from human leukocytes (human leukocytes)
1 | O=C(O)CCCSc1ccc(Cl)cc1 [Compound 1, Sodium 4-(p-Chlorophenylthio)butyrate] | 6 | 55 | 10-15% | 30-40% | 
2 | O=C(O)CSc1ccc(Cl)cc1 [Compound 2, 2-(p-Chlorophenylthio)acetic acid] | 44 | 8 |  |  | 
3 | CC(=O)OCCCCSc1ccc(Cl)cc1 [Compound 3, 4-(p-Chlorophenylthio)butyl acetate] | 6.3 | 52 |  |  | 
4 | COCCCCSc1ccc(Cl)cc1 [Compound 4, 4-(p-Chlorophenylthio)butyl methyl ether] | 28 | 12 |  |  | 
5 | OCC(O)COc1ccc(Cl)cc1 (stereo not shown) [chlorphenesin, 3-p-chlorophenoxy-1,2-propanediol, reference compound] | 330 | 1 |  |  | inhibit histamine release from human leukocytes
